Values of other authors, collected in patent US7491312B2, “Identifying therapeutic compounds based on their physical-chemical properties” (Edison Pharmaceuticals, Inc., priority 2002, dated 2009).

Molecular target: amyloid-β fibril formation (Homo sapiens, UniProt P05067)
Details: compounds with an apomorphine core structure (FIG. 8)

Chain of amyloid-β fibril formation (P05067 672-711 limits assumed): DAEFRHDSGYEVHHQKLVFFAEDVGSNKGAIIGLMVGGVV

Row | SMILES | reduction of fibril growth
1 | COc1ccc2c(c1O)-c1cccc3c1C(C2)N(C)CC3 (centres unmarked) [apocodeine] | 5%
2 | CN1CCc2cccc3c2[C@H]1Cc1ccc(O)c(O)c1-3 [apomorphine] | 99%
